The values below come from US7923473B2, “Aromatic compounds and their use in medical applications” (Revotar Biopharmaceuticals AG, priority 2005, dated 2011).

Experiment [1] concerns the target human L-Selectin-IgG-chimera (Homo sapiens, UniProt P14151). The experiment in a line: Sialyl Lewis^x Tyrosine Sulfate Assay (sLe^x TSA), L-selectin. The conditions noted are these: inhibition of binding of selectin chimera to sLe^x-tyrosine sulfate polyacrylamide ligand complex. How it is done:
(§1) Compounds of the present invention are assayed on a molecular level for their ability to inhibit the binding of P-, L-, or E-selectin chimeric molecules to sLe^x and tyrosinesulfate residues linked to a polymeric matrix as a PSGL-1 substitute. IC50-values are determined.
(§2) Microtiter plates are coated overnight in carbonate buffer pH9.6 with goat anti human Fc mAB (10 μg/ml). After washing in assay buffer (25 mM 4-(2-hydroxyethyl)-1-piperazineethanesulfonic acid (HEPES), 150 mM NaCl, 1 mM CaCl2 pH7.4) and blocking (3% bovine serum albumin (BSA) in assay buffer) plates are incubated for 2 h at 37° C. with human P-Selectin-IgG-chimera (0.61 nM respectively 150 ng/mL) or human L-Selectin-IgG-chimera (0.61 nM respectively 89 ng/mL) or human E-Selectin-IgG-chimera (0.61 nM respectively 131 ng/mL). 5 μl of sLe^x-tyrosine sulfate polyacrylamide (1 mg/ml) carrying 15% sLe^x, 10% Tyrosine-sulfate and 5% biotin is complexed with 20 μl Streptavidin-Peroxidase solution (1 mg/ml) and 25 μl assay buffer without CaCl2. For use in the assay, the ligand complex is diluted 1:10000 in assay buffer and further diluted 1:1 with varying amounts of compounds in assay buffer incl. 2% DMSO. This mixture is added to the wells precoated with E- or P-selectin. After incubation for 2 h at 37° C., wells are washed for six times with in assay buffer incl. 0.005% Polyoxyethylenesorbitan monolaurate (TWEEN 20), developed for 10-15 min with 20 μl 3,3′,5,5′-tetramethylbenzidine (TMB)/H202 substrate solution and stopped with 20 μl 1 M H2SO4. Bound sLe^x-Tyrosine sulfate ligand complex is determined by measuring optical density at 450 nm vs. 620 nm in a Fusion alpha-FP reader (sold from Packard Bioscience, Dreieich, Germany).

For experiment [2], the target named is T1, human E-Selectin-IgG-chimera (Homo sapiens, UniProt P16581). The experiment in a line: Sialyl Lewis^x Tyrosine Sulfate Assay (sLe^x TSA), E-selectin. The conditions noted are these: inhibition of binding of selectin chimera to sLe^x-tyrosine sulfate polyacrylamide ligand complex. How it is done: as §1, §2
The target of experiment [3] is T2, human P-Selectin-IgG-chimera (Homo sapiens, UniProt P16109). The experiment is described as follows: Sialyl Lewis^x Tyrosine Sulfate Assay (sLe^x TSA), P-selectin. The conditions noted are these: inhibition of binding of selectin chimera to sLe^x-tyrosine sulfate polyacrylamide ligand complex. How it is done: as §1, §2
In experiment [4] the target is T1, human E-Selectin-IgG-chimera. The experiment in a line: Flow chamber assay / cell adhesion and rolling under flow conditions, E-selectin. Format: cell-based. The conditions noted are these: 125 μM compound; HL-60 cells; flow shear 1 dyne/cm^2; attached cells after 5 minutes continuous flow. How it is done: (§3) To assess the capability of compounds to inhibit cell binding under dynamic conditions resembling the flow in a blood vessel, flow chamber assays addressing/testing binding of HL-60 cells/various cell lines to P-selectin, L-selectin and E-selectin chimeric molecules are performed.
(§4) Cell attachment under flow conditions are determined using a parallel flow chamber system. A 35 mm polystyrene culture dish is coated for 1 hour at room temperature with coating buffer (50 mM tris-(hydroxymethyl)aminomethane buffer (Tris), 150 mM NaCl, 2 mM CaCl2; pH 7.4) containing human E- or P-selectin-IgG chimera at concentrations of 2.5 μg/ml or 10 μg/ml, respectively. After removal of the coating solution non specific binding sites are blocked for an additional hour with 1% BSA in coating buffer at room temperature. After washing with assay buffer (“Roswell Park Memorial Institute 1640” (RPMI 1640)+10 mM HEPES) the dish is fitted into a parallel plate laminar flow chamber (sold from Glycotech, Rockville, Md.) and mounted on an inverted phase-contrast microscope (sold from Olympus, Hamburg, Germany) equipped with a CCD camera (JVC) that is connected to a PC. Employing a peristaltic pump (sold from Ismatec, Wertheim-Mondfeld, Germany) the re-circulating system is equilibrated with assay buffer containing 125 μM compound or vehicle control (DMSO). Cells (1 million/ml) are added to the chamber and allowed to distribute for 2 minutes at a high flow rate. The flow rate is then decreased resulting in a calculated flow shear of 1 dyne/cm^2. Video sequences of 10 low power fields are digitally recorded after 5 minutes continuous flow. The percentage of modulation is calculated from the mean number of cells per field that attached to the coated dish surface in the presence versus absence of compound of […].

In experiment [5] the target is T2, human P-Selectin-IgG-chimera. The experiment is described as follows: Flow chamber assay / cell adhesion and rolling under flow conditions, P-selectin. Format: cell-based. The conditions noted are these: 125 μM compound; HL-60 cells; flow shear 1 dyne/cm^2; attached cells after 5 minutes continuous flow. The method, then:
as §3, §4

Bounds are passed on as bounds.

T1 sequence (P16581 with tags, fused parts or gaps limits assumed): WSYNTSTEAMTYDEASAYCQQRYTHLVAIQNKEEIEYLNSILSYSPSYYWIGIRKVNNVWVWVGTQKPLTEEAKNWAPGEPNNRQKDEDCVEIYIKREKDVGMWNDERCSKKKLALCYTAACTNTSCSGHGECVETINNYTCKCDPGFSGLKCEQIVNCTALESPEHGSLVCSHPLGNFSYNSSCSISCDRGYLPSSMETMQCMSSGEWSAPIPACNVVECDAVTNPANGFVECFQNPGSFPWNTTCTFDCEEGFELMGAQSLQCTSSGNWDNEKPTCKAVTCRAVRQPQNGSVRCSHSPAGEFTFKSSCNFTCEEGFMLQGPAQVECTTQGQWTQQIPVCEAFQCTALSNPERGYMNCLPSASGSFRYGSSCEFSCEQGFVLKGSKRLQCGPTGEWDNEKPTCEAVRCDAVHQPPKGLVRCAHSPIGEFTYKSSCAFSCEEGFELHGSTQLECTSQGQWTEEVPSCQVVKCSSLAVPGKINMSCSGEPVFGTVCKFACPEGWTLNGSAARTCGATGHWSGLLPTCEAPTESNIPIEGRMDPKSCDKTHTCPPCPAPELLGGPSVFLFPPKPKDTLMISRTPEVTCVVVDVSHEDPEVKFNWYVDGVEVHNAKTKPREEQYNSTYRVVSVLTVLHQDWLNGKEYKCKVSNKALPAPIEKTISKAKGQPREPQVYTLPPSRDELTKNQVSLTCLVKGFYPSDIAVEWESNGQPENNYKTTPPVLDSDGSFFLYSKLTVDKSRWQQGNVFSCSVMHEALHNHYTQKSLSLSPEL
T2 sequence (P16109 with tags, fused parts or gaps limits assumed): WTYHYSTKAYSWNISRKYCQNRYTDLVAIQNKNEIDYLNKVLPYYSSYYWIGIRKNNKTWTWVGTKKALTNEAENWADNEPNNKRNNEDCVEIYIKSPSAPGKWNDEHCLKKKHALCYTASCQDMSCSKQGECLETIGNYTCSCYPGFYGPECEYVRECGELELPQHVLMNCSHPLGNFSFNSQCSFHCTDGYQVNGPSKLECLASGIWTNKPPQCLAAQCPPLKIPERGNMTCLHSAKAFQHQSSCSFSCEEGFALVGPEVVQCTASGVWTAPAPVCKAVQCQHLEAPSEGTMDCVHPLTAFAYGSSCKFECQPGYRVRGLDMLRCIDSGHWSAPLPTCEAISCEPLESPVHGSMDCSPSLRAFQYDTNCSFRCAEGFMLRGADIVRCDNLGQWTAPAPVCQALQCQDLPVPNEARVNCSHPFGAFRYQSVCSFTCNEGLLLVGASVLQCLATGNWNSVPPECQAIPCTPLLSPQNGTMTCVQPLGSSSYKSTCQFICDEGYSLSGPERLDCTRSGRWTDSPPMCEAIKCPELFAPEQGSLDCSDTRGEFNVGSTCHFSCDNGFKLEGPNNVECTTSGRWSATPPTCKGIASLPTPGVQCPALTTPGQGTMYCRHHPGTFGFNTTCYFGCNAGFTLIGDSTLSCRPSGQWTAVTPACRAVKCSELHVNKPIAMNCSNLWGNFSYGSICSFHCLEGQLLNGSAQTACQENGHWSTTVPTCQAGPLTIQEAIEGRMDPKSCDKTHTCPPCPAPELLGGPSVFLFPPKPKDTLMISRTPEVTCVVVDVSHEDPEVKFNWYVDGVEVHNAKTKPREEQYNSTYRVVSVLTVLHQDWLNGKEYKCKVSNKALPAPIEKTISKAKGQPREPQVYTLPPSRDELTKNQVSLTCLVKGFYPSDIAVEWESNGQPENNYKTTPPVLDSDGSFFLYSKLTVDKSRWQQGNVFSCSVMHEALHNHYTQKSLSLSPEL
Sequence of human L-Selectin-IgG-chimera (P14151 with tags, fused parts or gaps limits assumed): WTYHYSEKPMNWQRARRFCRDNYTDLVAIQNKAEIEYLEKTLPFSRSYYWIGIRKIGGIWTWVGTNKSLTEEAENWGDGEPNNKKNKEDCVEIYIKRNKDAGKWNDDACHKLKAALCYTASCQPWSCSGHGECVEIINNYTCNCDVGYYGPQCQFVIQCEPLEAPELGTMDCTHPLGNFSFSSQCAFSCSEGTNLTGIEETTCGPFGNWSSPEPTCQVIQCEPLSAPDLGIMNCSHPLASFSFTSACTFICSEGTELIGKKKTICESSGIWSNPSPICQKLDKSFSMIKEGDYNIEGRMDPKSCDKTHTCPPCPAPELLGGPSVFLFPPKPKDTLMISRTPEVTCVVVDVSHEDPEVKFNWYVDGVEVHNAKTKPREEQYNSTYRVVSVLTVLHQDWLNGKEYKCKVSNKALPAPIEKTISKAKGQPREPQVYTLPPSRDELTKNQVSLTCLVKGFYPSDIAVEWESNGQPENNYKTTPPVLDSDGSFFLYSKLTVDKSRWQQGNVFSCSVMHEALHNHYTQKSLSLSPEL

As usually defined, the IC50 is the midpoint of a concentration-inhibition curve. Compound `O=C(O)Cc1cccc(-c2cc(CCCCCCc3ccc(O[C@H]4O[C@H](CO)[C@@H](O)[C@H](O)[C@@H]4O)c(-c4cccc(CC(=O)O)c4)c3)ccc2O[C@H]2O[C@H](CO)[C@@H](O)[C@H](O)[C@@H]2O)c1` [Bimosiamose, bimosiamose, reference compound] returned an IC50 in experiment [1] of more than 500 µM.
Consider `COc1cc(CCC(=O)Nc2cccc(N)c2)cc(OC)c1OC` [Compound 60], for which the IC50 in experiment [2] was 18.2 µM; in experiment [1], 12.8 µM; in experiment [3] it was 15 µM.
The corresponding values for `COc1ccc(-c2cccc(C(=O)Nc3ccccc3-c3ccc(CC(=O)O)s3)c2)c(OC)c1OC` [Compound 61] are more than 500 µM, 385 µM and 186 µM.
In the case of `CCOC(=O)c1cc(-c2ccc(NC(=O)Cc3ccc(OC)c(OC)c3OC)cc2)oc1C` [Compound 62], the IC50 is 74.7 µM in experiment [2], 45.3 µM in experiment [1] and 46.4 µM in experiment [3].
Take `COc1ccc(-c2cc(C(=O)Nc3ccccc3-c3ccc(CC(=O)O)s3)cc([N+](=O)[O-])c2)c(OC)c1OC` [Compound 63]: the IC50 in experiment [2] is more than 500 µM; in experiment [1], 76.1 µM; in experiment [3], 28.5 µM. Besides, the “E-Selectin normalized ratio of %-inhibition of compound divided by %-inhibition of bimosiamose” value in experiment [4] was found to be 1.46 Ratio. For the same compound, the “P-Selectin normalized ratio of %-inhibition of compound divided by %-inhibition of bimosiamose” value in experiment [5] is reported as 1.06 Ratio.
Turning to `COc1ccc(-c2cccc(C(=O)Nc3ccccc3-c3ccc(C(=O)O)s3)c2)c(OC)c1OC` [Compound 64], the IC50 was more than 500 µM in experiment [2], 383 µM in experiment [1] and 107 µM in experiment [3]. In experiment [4], the “E-Selectin normalized ratio of %-inhibition of compound divided by %-inhibition of bimosiamose” value came to 1.27 Ratio. The “P-Selectin normalized ratio of %-inhibition of compound divided by %-inhibition of bimosiamose” value in experiment [5] turned out to be 1.01 Ratio.
With `COc1ccc(-c2cccc(C(=O)Nc3ccccc3-c3ccc(Cc4nnn[nH]4)s3)c2)c(OC)c1OC` [Compound 87, 2′,3′,4′-Trimethoxy-biphenyl-3-carboxylic acid {2-[5-(1H-tetrazol-5-ylmethyl)-thiophen-2-yl]-phenyl}-amide], the IC50 is 59.5 µM in experiment [1] and 32.6 µM in experiment [3]. Moreover, the “E-Selectin normalized ratio of %-inhibition of compound divided by %-inhibition of bimosiamose” value in experiment [4] turned out to be 1.23 Ratio. Besides, in experiment [5], the “P-Selectin normalized ratio of %-inhibition of compound divided by %-inhibition of bimosiamose” value came out at 2.62 Ratio.
